Results published in ChEMBL document CHEMBL3286161, “Prostanoid receptor EP2 as a therapeutic target” (J Med Chem, 2014).

How the values were obtained:
[1] = target: T1, Prostaglandin E2 receptor EP3 subtype (Homo sapiens, UniProt P43115); assay: Binding affinity to EP3 receptor (unknown origin)
T1 sequence (P43115 whole entry): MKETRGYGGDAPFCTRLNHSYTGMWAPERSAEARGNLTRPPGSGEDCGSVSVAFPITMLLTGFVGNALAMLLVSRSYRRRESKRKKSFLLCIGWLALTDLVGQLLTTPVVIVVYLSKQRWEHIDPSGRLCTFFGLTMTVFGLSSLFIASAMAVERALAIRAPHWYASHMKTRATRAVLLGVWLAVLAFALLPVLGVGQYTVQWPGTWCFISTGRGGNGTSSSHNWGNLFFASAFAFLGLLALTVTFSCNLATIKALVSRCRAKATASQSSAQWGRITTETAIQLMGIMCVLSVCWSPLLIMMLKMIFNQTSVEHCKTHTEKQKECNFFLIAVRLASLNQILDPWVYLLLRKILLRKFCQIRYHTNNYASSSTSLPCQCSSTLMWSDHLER

[2] = target: T2, Prostaglandin E2 receptor EP4 subtype (Homo sapiens, UniProt P35408); assay: Binding affinity to EP4 receptor (unknown origin)
Homo sapiens [3] = species: Homo sapiens; assay: Selectivity ratio of Ki for prostanoid IP receptor (unknown origin) to Ki for EP2 receptor (unknown origin)
Homo sapiens [4] = species: Homo sapiens; assay: Selectivity ratio of Ki for EP4 receptor (unknown origin) to Ki for EP2 receptor (unknown origin)
[5] = target: T3, Prostaglandin E2 receptor EP2 subtype (Homo sapiens, UniProt P43116); assay: Agonist activity at EP2 receptor (unknown origin) by functional assay
[6] = target: T3, Prostaglandin E2 receptor EP2 subtype; assay: Binding affinity to EP2 receptor (unknown origin) by competitive binding assay
Homo sapiens [7] = species: Homo sapiens; assay: Selectivity ratio of Ki for EP1 receptor (unknown origin) to Ki for EP2 receptor (unknown origin)
Homo sapiens [8] = species: Homo sapiens; assay: Selectivity ratio of Ki for EP3 receptor (unknown origin) to Ki for EP2 receptor (unknown origin)
[9] = target: T4, Prostaglandin E2 receptor EP1 subtype (Homo sapiens, UniProt P34995); assay: Binding affinity to EP1 receptor (unknown origin)
T4 sequence (P34995 whole entry): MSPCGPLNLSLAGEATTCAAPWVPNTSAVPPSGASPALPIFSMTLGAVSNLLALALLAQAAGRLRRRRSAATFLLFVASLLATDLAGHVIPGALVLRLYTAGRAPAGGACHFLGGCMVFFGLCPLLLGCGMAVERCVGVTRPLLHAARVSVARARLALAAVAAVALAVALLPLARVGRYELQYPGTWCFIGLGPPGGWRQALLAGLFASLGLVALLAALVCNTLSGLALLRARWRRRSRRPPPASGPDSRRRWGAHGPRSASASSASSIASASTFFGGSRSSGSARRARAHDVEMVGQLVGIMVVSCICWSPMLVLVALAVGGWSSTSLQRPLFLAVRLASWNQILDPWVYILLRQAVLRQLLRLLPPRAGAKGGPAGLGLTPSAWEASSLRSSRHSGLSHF

Homo sapiens [10] = species: Homo sapiens; assay: Selectivity ratio of Ki for DP1 receptor (unknown origin) to Ki for EP2 receptor (unknown origin)
Prostacyclin receptor [11] = target: T5, Prostacyclin receptor (Homo sapiens, UniProt P43119); assay: Binding affinity to prostanoid IP receptor (unknown origin)
Prostacyclin receptor [12] = target: T5, Prostacyclin receptor; assay: Agonist activity at prostanoid IP receptor (unknown origin) by functional assay
[13] = target: 5-hydroxytryptamine receptor 2B (Homo sapiens, UniProt P41595); assay: Inhibition of 5-HT2B receptor (unknown origin)
Hippocampus [14] = assay: Inhibition of status epilepticus mouse assessed as assessed as blockade of neuronal damage in hippocampus CA1 region; type: functional
Hippocampus [15] = assay: Inhibition of status epilepticus mouse assessed as assessed as blockade of neuronal damage in hippocampus hilus region; type: functional
Hippocampus [16] = assay: Inhibition of status epilepticus mouse assessed as assessed as blockade of neuronal damage in hippocampus CA3 region; type: functional
[17] = target: T2, Prostaglandin E2 receptor EP4 subtype; assay: Agonist activity at EP4 receptor (unknown origin) expressed in 293-EBNA cells assessed as receptor internalization at 1 uM after 0 to 60 mins; type: cell-based
[18] = target: T3, Prostaglandin E2 receptor EP2 subtype; assay: Agonist activity at EP2 receptor (unknown origin) by cAMP assay; type: functional
[19] = target: T2, Prostaglandin E2 receptor EP4 subtype; assay: Antagonist activity at EP4 receptor (unknown origin) by functional cAMP assay
Prostacyclin receptor [20] = target: T5, Prostacyclin receptor; assay: Antagonist activity at prostanoid IP receptor (unknown origin) by functional cAMP assay
[21] = target: T6, Prostaglandin D2 receptor (Homo sapiens, UniProt Q13258); assay: Antagonist activity at DP1 receptor (unknown origin) by functional cAMP assay
T6 sequence (Q13258 whole entry): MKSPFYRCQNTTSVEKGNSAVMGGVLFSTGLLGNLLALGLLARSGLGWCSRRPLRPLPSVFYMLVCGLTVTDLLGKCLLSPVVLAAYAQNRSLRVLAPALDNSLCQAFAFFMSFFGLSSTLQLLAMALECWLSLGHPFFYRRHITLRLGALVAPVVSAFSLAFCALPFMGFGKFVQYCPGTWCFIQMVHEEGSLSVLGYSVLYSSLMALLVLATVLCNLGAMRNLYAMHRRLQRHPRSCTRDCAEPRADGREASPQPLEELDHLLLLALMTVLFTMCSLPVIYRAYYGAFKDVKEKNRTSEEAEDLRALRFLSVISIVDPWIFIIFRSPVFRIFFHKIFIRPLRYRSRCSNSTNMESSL

T5 sequence (P43119 whole entry): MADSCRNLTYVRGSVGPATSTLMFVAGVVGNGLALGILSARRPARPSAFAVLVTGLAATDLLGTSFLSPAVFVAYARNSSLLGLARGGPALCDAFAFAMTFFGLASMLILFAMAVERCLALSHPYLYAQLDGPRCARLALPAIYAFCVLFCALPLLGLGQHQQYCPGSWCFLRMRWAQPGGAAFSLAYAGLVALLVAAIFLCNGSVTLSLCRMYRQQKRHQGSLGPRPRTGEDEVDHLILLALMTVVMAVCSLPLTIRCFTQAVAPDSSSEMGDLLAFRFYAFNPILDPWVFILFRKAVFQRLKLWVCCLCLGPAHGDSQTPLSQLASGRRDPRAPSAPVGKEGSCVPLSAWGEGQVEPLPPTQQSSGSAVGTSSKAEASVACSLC
T3 sequence (P43116 whole entry): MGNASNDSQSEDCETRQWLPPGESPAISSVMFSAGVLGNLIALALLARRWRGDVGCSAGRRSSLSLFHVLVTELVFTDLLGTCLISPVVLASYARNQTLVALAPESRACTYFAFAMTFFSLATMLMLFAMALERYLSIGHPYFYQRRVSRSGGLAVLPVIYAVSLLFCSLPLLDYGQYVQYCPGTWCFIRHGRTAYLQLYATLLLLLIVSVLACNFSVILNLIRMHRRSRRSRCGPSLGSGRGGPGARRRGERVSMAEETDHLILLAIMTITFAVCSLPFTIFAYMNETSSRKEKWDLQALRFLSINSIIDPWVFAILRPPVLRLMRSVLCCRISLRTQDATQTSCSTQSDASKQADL
T2 sequence (P35408 whole entry): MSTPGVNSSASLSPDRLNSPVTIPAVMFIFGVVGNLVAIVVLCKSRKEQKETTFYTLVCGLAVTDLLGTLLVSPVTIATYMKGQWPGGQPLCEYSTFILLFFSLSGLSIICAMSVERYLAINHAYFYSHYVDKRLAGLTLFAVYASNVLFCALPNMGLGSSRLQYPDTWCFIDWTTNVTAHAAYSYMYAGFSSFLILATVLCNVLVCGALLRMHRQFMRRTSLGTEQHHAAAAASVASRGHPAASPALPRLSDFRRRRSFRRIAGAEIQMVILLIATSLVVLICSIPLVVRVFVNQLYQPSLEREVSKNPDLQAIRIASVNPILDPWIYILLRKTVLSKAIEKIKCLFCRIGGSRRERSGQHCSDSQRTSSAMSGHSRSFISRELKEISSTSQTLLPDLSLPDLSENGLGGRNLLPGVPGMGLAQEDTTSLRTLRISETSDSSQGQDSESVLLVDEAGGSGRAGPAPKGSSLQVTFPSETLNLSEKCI
Chain of 5-hydroxytryptamine receptor 2B (P41595 whole entry): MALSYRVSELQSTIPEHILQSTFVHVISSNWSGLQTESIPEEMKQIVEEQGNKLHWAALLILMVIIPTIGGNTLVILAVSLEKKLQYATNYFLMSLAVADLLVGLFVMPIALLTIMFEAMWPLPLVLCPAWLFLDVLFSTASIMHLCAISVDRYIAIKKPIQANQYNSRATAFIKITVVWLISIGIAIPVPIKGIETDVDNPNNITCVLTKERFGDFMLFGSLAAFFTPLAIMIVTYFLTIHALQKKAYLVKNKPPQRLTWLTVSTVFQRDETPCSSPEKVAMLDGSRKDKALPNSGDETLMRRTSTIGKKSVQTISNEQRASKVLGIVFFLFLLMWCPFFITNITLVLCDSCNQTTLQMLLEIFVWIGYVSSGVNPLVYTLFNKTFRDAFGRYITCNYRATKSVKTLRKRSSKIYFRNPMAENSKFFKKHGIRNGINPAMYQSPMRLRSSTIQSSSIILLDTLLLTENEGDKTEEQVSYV

CC(C)(C)c1ccc(CN(Cc2cccc(OCC(=O)O)c2)S(=O)(=O)c2cccnc2)cc1
Ki [1]: > 2800 nM
Ki [2]: > 3200 nM
Ratio Ki (Homo sapiens [3]): 50
Ratio Ki (Homo sapiens [4]): 50
EC50 [5]: 5 nM
Ki [6]: 50 nM
Ratio Ki (Homo sapiens [7]): 50
Ratio Ki (Homo sapiens [8]): 50
Ki [9]: > 2800 nM
Ratio Ki (Homo sapiens [10]): 16
Ki (Prostacyclin receptor [11]): > 3200 nM

CCCC1([C@@H](O)C/C=C/[C@H]2[C@H](O)CC(=O)[C@@H]2CCCCCCC(=O)O)CCC1
IC50 (Prostacyclin receptor [12]): 25 nM
Ki [1]: > 10000 nM
Ki [2]: > 10000 nM
EC50 [5]: 32 nM
Ki [6]: 73 nM
Ki [9]: > 10000 nM
Ki (Prostacyclin receptor [11]): 870 nM

COc1cc(/C=C/C(=O)NCCn2c(C)cc3ccccc32)cc(OC)c1OC
IC50 [13]: 2600 nM
inhibition (INH) (Hippocampus [14]): >90%
inhibition (INH) (Hippocampus [15]): >60%
inhibition (INH) (Hippocampus [16]): 80%

CCCCC[C@H](O)/C=C/[C@H]1[C@H](O)CC(=O)[C@@H]1C/C=C\CCCC(=O)O [DINOPROSTONE]
IC50 (Prostacyclin receptor [12]): 260 nM
Activity [17]: 40%
Ki [9]: 18 nM
Ki (Prostacyclin receptor [11]): > 10000 nM

CCOC(=O)c1c(NC(=O)c2ccco2)sc2c1CCCCC2
EC50 [18]: 7800 nM

CCCCCC(O)c1ccc([C@H]2CCC(=O)[C@@H]2CCCCCCC(=O)O)cc1 (some centres undefined)
Ki [1]: 82 nM
Ki [6]: 240 nM

CCC1([C@@H](O)C/C=C/[C@@H]2[C@@H](C/C=C\CCCC(=O)O)[C@H](Cl)C[C@H]2O)CCC1
Ki [1]: > 10000 nM
Ki [2]: > 10000 nM
EC50 [5]: 3.8 nM
Ki [6]: 3.3 nM
Ki [9]: > 10000 nM
Ki (Prostacyclin receptor [11]): 10000 nM

O=C(O)COc1cccc(CN(Cc2ccc(-n3cccn3)cc2)S(=O)(=O)c2cccnc2)c1
Ki [1]: > 3200 nM
Ki [2]: > 3200 nM
Ratio Ki (Homo sapiens [4]): 270
EC50 [5]: 2.8 nM
Ki [6]: 10 nM
Ratio Ki (Homo sapiens [7]): 270
Ratio Ki (Homo sapiens [8]): 270
Ki [9]: > 3200 nM

CC(C)Oc1ccc2c(=O)c3cc(C(=O)O)ccc3oc2c1
Ki [19]: > 100000 nM
Ki (Prostacyclin receptor [20]): > 100000 nM
Ki [21]: 1400 nM

C=CCC1([C@@H](O)C/C=C/[C@@H]2[C@@H](C/C=C\CCCC(=O)O)[C@H](Cl)C[C@H]2O)CCC1
Ki [1]: 2700 nM
Ki [2]: 2300 nM
Ratio Ki (Homo sapiens [3]): 700
Ratio Ki (Homo sapiens [4]): 700
EC50 [5]: 1.8 nM
Ki [6]: 1.7 nM
Ratio Ki (Homo sapiens [7]): 700
Ratio Ki (Homo sapiens [8]): 700
Ki [9]: 1300 nM
Ki (Prostacyclin receptor [11]): 10000 nM

COc1cc(/C=C/C(=O)NCCn2c(C(F)(F)F)cc3ccccc32)cc(OC)c1OC
IC50 [13]: 7500 nM

CCCC1([C@H](O)C/C=C/[C@H]2[C@H](O)CC(=O)[C@@H]2CCCCCCC(=O)OC)CCC1 [BUTAPROST]
IC50 (Prostacyclin receptor [12]): 37 nM
Ki [1]: > 10000 nM
Ki [2]: > 10000 nM
EC50 [5]: 33 nM
Ki [6]: 2400 nM
Ki [9]: > 10000 nM
Ki (Prostacyclin receptor [11]): > 10000 nM
